Format in all cases: functional
The test system of one assay is MCF7. Briefly: Cytotoxicity against human MCF7 cells after 96 hrs by MTT assay. The note with it: MCF7, 96 h, read-out: LD50 (the source's name). (In general: Tetrazolium dyes change colour on reduction, which living cells bring about.)
The test system of another assay is HeLa. The assay is described as follows: Cytotoxicity against human HeLa cells after 96 hrs by MTT assay. The conditions noted are these: read-out: LD50 (the source's name).
A short description of assay [1]: Cytotoxicity against human XL17 cells after 96 hrs by MTT assay. The note with it: XL17, 96 h, read-out: LD50 (the source's name).
The test system of the next assay is HEp-2. Briefly: Cytotoxicity against human Hep2 cells after 96 hrs by MTT assay. The note with it: HEp-2, 96 h, read-out: LD50 (the source's name).
In another assay the test system is RD. Briefly: Cytotoxicity against human RD cells after 96 hrs by MTT assay. The conditions noted are these: read-out: LD50 (the source's name).
For another assay, the system named is LoVo. Briefly: Cytotoxicity against human LoVo cells after 96 hrs by MTT assay. The note with it: read-out: LD50 (the source's name).

≈ marks a conversion by molar mass, not a printed value. Where only a bound is given, the exact number is not on record here.

Consider `COC1=C(Br)[C@H](O)[C@@]2(C=C1Br)CC(C(=O)NCCCOc1c(Br)cc(C(O)CNC(=O)C3=NO[C@]4(C=C(Br)C(OC)=C(Br)[C@@H]4O)C3)cc1Br)=NO2` (stereo partly specified), for which the CC50 with MCF7 was greater than 50 µg/mL; in the assay with HeLa, 17 µg/mL (≈ 15.5 µM); in assay [1], 17 µg/mL (≈ 15.5 µM); in the assay on HEp-2 it was 17 µg/mL (≈ 15.5 µM); in the assay on RD, 17 µg/mL (≈ 15.5 µM); with LoVo it was 17 µg/mL (≈ 15.5 µM).

For the origin of these results see ChEMBL document CHEMBL1144130, “11-Deoxyfistularin-3, a new cytotoxic metabolite from the caribbean sponge Aplysina fistularis insularis” (1999).
